pIC50: −log10 of the molar value.
How the values were obtained:
P-gp (MDR1-MDCKII cells) = P-gp (MDR1-MDCKII cells) (Homo sapiens, UniProt P08183); assay: Bidirectional permeability in MDR1-MDCKII cells with and without GF120918; settings: for Rank Papp: MDR1-MDCKII permeability rank
Procedure: (§1) MDR1-MDCKII cells were seeded onto […] (PET) in a 96-well insert system. Test and reference compounds were administered to the apical (A-to-B) and basolateral (B-to-A) sides of the cell monolayer. Permeation of the compounds in both directions was assessed, with and without a P-glycoprotein (P-gp) inhibitor (GF120918). […] After a 2.5-h incubation period, each compound’s permeability and efflux ratio were calculated as described in the SI. […]
(§2) Bidirectional permeability assessment in MDR1-MDCK cells. Test and reference compounds were quantified using LC -MS/MS ana lysis based on th e peak ar ea r atio of analyte to internal standard (IS). T he apparent permeability coefficient (Papp) in cm/s was computed using the equation: Pa pp = (dCr/d t ) × V r / ( A × C 0), where dCr/ d t […]
(§3) represents the cumulative concentration of the compound in the receiver chamber over time (µM/s), Vr is the solution volume in the receiver chamber (0.075 mL on the apical side, 0.25 mL on the basolateral side), A is the surface area for transport (0.0804 cm2 f or the monolayer ar ea), and C0 is the initial concentration in the donor chamber ( µM) .
(§4) The efflux ratio was determined using the equation Efflux Ratio = P a pp ( B:
(§5) A ) / Pa pp (A: B) . […]
(§6) Additionally, the percent of lucifer yellow in the basolateral well was calculated using the equation:
(§7) Lucif er yellow = VV bbbbbbbbbbbbbbbbbbbb ×RR FFFF bbbbbbbbbbbbbbbbbbbb ×100 VV bbaaaaaa bbbb ×RRRRRR bbaaaaaa bbbb+VV bbbbbbbbbbbbbbbbbbbb ×RRFFFF bbbbbbbbbbbbbbbbbbbb wher e RFUApical and RFUBasolateral demote the r elative f luor escence unit values of lucif er yellow in the apical and basolateral wells, respectively, and VApical and VBasolateral represent the volumes of apical and basolateral wells (0.075 mL and 0.25 mL, r espectively) . T he % Lucif er Yellow should be less than 2, indicating minimal leakage. […]

P-gp (MDR1) = P-gp (MDR1) (Homo sapiens, UniProt P08183); assay: as above; settings: dog; for Papp A→B at 2.5 h: MDCK-MDR1; for recovery at 2.5 h: MDCK-MDR1, Mean recovery % A to B, without GF120918
P-gp (MDR1), sequence (P08183 whole entry): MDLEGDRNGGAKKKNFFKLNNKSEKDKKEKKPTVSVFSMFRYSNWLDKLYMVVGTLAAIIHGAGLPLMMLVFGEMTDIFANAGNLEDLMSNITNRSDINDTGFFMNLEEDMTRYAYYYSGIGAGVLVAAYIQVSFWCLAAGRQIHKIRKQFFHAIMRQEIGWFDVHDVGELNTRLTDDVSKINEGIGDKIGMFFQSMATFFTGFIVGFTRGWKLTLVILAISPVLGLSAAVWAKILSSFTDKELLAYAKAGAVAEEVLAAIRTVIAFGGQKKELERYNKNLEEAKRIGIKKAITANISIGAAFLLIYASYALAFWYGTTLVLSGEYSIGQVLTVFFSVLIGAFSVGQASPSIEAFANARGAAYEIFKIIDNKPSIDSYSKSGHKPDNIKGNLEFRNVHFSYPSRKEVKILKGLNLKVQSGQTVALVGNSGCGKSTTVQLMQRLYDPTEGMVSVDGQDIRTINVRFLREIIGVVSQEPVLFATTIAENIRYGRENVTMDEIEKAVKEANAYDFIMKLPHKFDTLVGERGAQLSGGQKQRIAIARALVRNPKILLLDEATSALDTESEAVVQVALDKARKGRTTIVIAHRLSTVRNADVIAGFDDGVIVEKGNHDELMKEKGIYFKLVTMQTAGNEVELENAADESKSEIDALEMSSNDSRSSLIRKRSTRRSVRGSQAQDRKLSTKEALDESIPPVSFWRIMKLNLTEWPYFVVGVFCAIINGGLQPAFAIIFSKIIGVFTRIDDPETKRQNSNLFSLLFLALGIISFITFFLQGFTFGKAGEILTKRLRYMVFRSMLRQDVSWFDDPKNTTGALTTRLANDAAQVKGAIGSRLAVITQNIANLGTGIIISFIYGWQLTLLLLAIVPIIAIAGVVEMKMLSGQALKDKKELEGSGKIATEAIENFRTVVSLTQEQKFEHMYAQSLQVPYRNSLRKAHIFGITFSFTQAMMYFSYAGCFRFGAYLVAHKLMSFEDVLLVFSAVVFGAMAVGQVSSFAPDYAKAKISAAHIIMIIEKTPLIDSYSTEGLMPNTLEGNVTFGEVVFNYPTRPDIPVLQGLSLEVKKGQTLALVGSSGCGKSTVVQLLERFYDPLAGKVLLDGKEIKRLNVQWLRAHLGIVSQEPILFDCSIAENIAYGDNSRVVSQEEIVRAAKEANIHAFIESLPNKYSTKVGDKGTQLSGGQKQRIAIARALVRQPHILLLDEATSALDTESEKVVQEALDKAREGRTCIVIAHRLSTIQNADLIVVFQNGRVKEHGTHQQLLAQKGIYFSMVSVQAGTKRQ
Procedure: as §1, §2, §3, §4, §5, §6, §7

HepG2 cells = assay: Cell viability assay (CellTiter Glo); format: cell-based; settings: Homo sapiens, 72 h, read-out: cell viability relative IC50
Procedure: Cell viability assay. To assess the cell viability, which indicates the toxicity of the novel compounds, a total of 3,000 HepG2 cells were seeded into a 384-well plate. The compounds were then dispensed onto the cell plate using a Tecan D300e digital dispenser. Following compound addition, 35 μL CellTiter Glo reagent was added to all wells of the assay plate, and the plate was mixed for 30 sec on an or bital shaker to lyse cells. Subsequently, the plate was incubated at room temperature for 10 minutes. The luminescence signal was measured using a 384-well plate reader (EnVision). The obtained data were analyzed using XL-fit software (ID Business Solutions Ltd., Software version: XL fit 5. 5. 0. 5). The percentage of inhibition was calculated using the […]
Inhibition (%) = (1-Sample / ZPE) ×100
Sample represents the test compound's luminesc e nce signal, and ZPE represents the luminescence signal f r om the zer o-percent enzyme control.

P-gp (MDR1-MDCKII cells), sequence (P08183 whole entry): as above

P-gp substrate (P-gp (MDR1-MDCKII cells); MDR1-MDCKII cells)	Rank Papp (P-gp (MDR1-MDCKII cells))	Mean Papp B to A (P-gp (MDR1-MDCKII cells); without GF120918)	Papp A→B at 2.5 h (P-gp (MDR1))	recovery at 2.5 h (P-gp (MDR1))	Structure (SMILES)	pIC50 (HepG2 cells)
Ye s	Low	10.88 10 -6 cm/s			C[C@H]1O[C@@H](O[C@H]2[C@@H](O)C[C@H](O[C@H]3[C@@H](O)C[C@H](O[C@H]4CC[C@@]5(C)[C@H](CC[C@@H]6[C@@H]5C[C@@H](O)[C@]5(C)[C@@H](C7=CC(=O)OC7)CC[C@]65O)C4)O[C@@H]3C)O[C@@H]2C)C[C@H](O)[C@@H]1O [Digoxin, reference compound]	
	Hi gh		28.7 ×10⁻⁶ cm/s	107%	COCCc1ccc(OCC(O)CNC(C)C)cc1 (stereo not shown) [Metoprolol, reference compound]	
	Low		0.42 ×10⁻⁶ cm/s	102%	CC(C)(C)NCC(O)COc1cccc2c1CC(O)C(O)C2 (stereo not shown) [Nadolol, reference compound]	
					CN[C@@H]1C[C@H]2O[C@@](C)([C@@H]1OC)n1c3ccccc3c3c4c(c5c6ccccc6n2c5c31)C(=O)NC4 [Staurosporine, reference compound]	7.22

— article PMC12067444, “Synthesis and Pharmacological Characterization of Novel Peripheral Cannabinoid-1 Receptor Blockers Based on a Tricyclic Scaffold” (Journal of Medicinal Chemistry, 2025)
